Read-outs that look alike come from different tables or passages of the source.
Tests used:
Assay type in all cases: biochemical
Cathepsin B (human) = molecular target: T1, Cathepsin B (human) (Homo sapiens, UniProt P07858); assay: Protease assay, fluorogenic substrate Z-Phe-Arg-AMC: Cathepsin B
T1 construct: Cathepsin B (human liver) Calbiochem; purchased Calbiochem; host or cells: human liver (tissue-derived)
From the text: (§1) 2.1.1. Protease Assays as shown in tables 1 and 2: Cathepsin L (human), Cathepsin B (human), Rhodesain (Trypanosoma brucei rhodesiense), Falcipain 2 (Plasmodium falciparum)
(§2) Enzyme assays used to identify inhibitors of the target cysteine proteases. The effect is detected measuring fluorescence increase due to hydrolysis of fluorogenic substrates by the target enzymes in absence and presence of potential inhibitors.
(§3) • a. Proteins (enzymes): • Cathepsin L (human liver) Calbiochem • Cathepsin B (human liver) Calbiochem • Rhodesain: recombinantly expressed according to ref.: Caffrey, C. R.; Hansell, E.; Lucas, K. D.; Brinen, L. S.; Hernandez, A. A.; Cheng, J.; Gwaltney, S. L., II; Roush, W. R.; Stierhof, Y. D.; Bogyo, M.; Steverding, D.; McKerrow, J. H. Active site mapping, biochemical properties and subcellular localization of rhodesain, the major cysteine protease of Trypanosoma • Falcipain 2: recombinantly expressed according to ref.: Pandey, K. C.; Wang, S. X.; Sijwali, P. S.; Lau, A. L.; McKerrow, J. H.; Rosenthal, P. J. The Plasmodium falciparum cysteine protease falcipain-2 captures its substrate, hemoglobin, via a unique motif. Proc. Natl. Acad. Sci. U.S.A. 2005, 102, 9138-9143. • b. Buffers: • Cathepsin B: 50 mM Tris-Puffer pH 6.5 mit 2 mM DTT, 5 mM EDTA, 200 mM NaCl, 0.005% Brij35 • Cathepsin L: 50 mM Tris-Puffer pH 6.5 mit 2 mM DTT, 5 mM EDTA, 200 mM NaCl, 0.005% Brij35 • Rhodesain: 50 mM Acetat-Puffer pH 5.5 mit 5 mM DTT, 5 mM EDTA, 200 mM NaCl, 0.005% Brij35 • Falcipain 2: 50 mM Acetat-Puffer pH 5.5 mit 5 mM DTT, 5 mM EDTA, 200 mM NaCl, 0.005% Brij35 • c. Substrates: • Cathepsin L: 6,25 µM Z-Phe-Arg-7-amino-4-methylcumarin, HCl von Bachem, Ex 380 nm, Em 460 nm • Cathepsin B: 100 µM Z-Phe-Arg-7-amino-4-methylcumarin, HCl von Bachem, Ex 380 nm, Em 460 nm • Rhodesain: 10µM Z-Phe-Arg-7-amino-4-methylcumarin, HCl von Bachem, Ex 380 nm, Em 460 nm • Falcipain 2: 25µM Z-Phe-Arg-7-amino-4-methylcumarin, HCl von Bachem, Ex 380 nm, Em 460 nm • Reference substance(s)/positive control(s): E64 • d. Solvent for inhibitors and substrates: DMSO 99,5% (GC) DC4540, Sigma • e. Measurement device: Tecan Fluorescence spectrophotometer infinite F200 Pro • f. Well plates: 96 well plates, Lia-Plate White, Greiner bio-one, flat bottom, high binding • g. Methodology: Substrates and inhibitor stock solutions are prepared in DMSO and diluted with the respective assay buffer (final DMSO concentration: […]). Enzyme stock solutions are diluted with assay buffer to yield a fluorescence increase of dF/min ≈ _20. Total volume: 200 µL (180 µL of assay buffer, 5 µL of enzyme solution, 10 µL of DMSO or inhibitor solution, 5 µL of substrate solution). Assays are started by the addition of substrate solution. Fluorescence increase is detected over a period of 10 - 30 min, depending on time dependent (30 min) or non-time dependent (10 min) inhibition. • h. Temp: 25 °C • i. DATA-[…] • Software: Grafit 5.013 • Ki values are calculated from IC50 values (obtained by the 4-parameter IC50 equation) using the Chen-Prusoff equation: Ki=IC50/(1 + [S]/Km)
(§4) In vitro inhibition of cysteine-proteases cruzain (CR) (Trypanosoma cruzi (T. cruzi)), rhodesain (RD) (T. brucei), cathepsin B (CB), falcipain (FP2) (Plasmodium falciparum) and cathepsin L (CL) was assessed by quantification of the resulting fluorescence emission of the proteolytic breakdown of synthetic compound Z-Phe-Arg-AMC (Bachem). The results of this determination are shown in tables 1 and 2 illustrated above.

Cathepsin L (human) = molecular target: T2, Cathepsin L (human) (Homo sapiens, UniProt P07711); assay: Protease assay, fluorogenic substrate Z-Phe-Arg-AMC: Cathepsin L
T2 construct: Cathepsin L (human liver) Calbiochem; purchased Calbiochem; host or cells: human liver (tissue-derived)
From the text: as §1, §2, §3, §4

Falcipain 2 = molecular target: T3, Falcipain 2 (Plasmodium falciparum, UniProt Q8I6U4); assay: Protease assay, fluorogenic substrate Z-Phe-Arg-AMC: Falcipain 2; settings: FP2=Falcipain2
T3 construct: made in house
From the text: as §1, §2, §3, §4

Rhodesain = molecular target: T4, Rhodesain (Trypanosoma brucei rhodesiense, UniProt Q95PM0); assay: Protease assay, fluorogenic substrate Z-Phe-Arg-AMC: Rhodesain; settings: for IC50: RD=Rhodesain, 25 °C, pH 5.5, 10µM substrate
T4 construct: made in house
From the text: as §1, §2, §3, §4

cruzain (CR) = cruzain (CR) (Trypanosoma cruzi, UniProt P25779); assay: In vitro inhibition of cruzain, fluorescence of Z-Phe-Arg-AMC breakdown
Protocol: as §2, §4

[1] = CB=CathepsinB; 25 °C, pH 6.5, 100 µM substrate; read-out: CBIC50micM
[2] = CL=CathepsinL; 25 °C, pH 6.5, 6,25 µM substrate; read-out: CL(IC50)

T3 sequence (Q8I6U4 244-484): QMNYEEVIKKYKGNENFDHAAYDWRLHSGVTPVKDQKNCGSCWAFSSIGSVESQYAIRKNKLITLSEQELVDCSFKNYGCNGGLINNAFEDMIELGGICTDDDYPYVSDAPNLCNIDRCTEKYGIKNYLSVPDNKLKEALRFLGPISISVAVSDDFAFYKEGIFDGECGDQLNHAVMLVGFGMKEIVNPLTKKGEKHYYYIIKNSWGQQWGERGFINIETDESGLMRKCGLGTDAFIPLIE
Chain of cruzain (CR) (P25779 123-467): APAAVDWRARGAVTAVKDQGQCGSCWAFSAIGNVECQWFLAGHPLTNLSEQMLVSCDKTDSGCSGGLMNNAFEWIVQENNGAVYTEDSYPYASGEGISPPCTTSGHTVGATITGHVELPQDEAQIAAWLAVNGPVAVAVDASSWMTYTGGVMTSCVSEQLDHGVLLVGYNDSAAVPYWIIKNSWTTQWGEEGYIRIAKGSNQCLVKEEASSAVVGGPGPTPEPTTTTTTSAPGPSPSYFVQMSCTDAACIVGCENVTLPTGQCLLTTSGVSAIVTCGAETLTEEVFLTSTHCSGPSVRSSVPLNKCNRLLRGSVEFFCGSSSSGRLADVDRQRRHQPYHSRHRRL
T4 sequence (Q95PM0 entry or part of it): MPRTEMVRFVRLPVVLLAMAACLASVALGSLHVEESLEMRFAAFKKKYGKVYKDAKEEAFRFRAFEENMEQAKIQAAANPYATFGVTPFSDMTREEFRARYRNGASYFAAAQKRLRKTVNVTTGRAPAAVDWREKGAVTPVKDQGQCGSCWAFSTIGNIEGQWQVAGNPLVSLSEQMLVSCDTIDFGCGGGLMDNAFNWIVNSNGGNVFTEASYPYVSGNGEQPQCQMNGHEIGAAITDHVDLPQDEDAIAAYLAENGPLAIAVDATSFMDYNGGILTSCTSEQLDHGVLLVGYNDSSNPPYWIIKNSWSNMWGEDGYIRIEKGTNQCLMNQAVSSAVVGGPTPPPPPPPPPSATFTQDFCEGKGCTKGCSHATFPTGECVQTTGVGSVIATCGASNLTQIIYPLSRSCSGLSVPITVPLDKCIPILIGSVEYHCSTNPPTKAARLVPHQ
T2 sequence (P07711 114-333): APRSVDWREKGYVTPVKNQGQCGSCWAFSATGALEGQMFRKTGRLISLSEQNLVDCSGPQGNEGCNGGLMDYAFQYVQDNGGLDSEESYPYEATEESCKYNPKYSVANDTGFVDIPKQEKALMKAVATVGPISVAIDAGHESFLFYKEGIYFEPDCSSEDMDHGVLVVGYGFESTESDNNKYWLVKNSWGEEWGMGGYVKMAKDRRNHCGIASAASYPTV

Row | SMILES | CB(K2nd(M-1s-1)) (Cathepsin B (human); CB=CathepsinB) [M⁻¹ s⁻¹] | IC50 (Cathepsin B (human); [1]) [µM] | CL(K2nd(M-1s-1)) (Cathepsin L (human); CL=CathepsinL) [M⁻¹ s⁻¹] | IC50 (Cathepsin L (human); [2]) [µM] | FP2(K2nd(M-1s-1)) (Falcipain 2) | RD(K2nd(M-1s-1)) (Rhodesain) [M⁻¹ s⁻¹] | IC50 (Rhodesain) [µM] | CR(K2nd(M-1s-1)) (cruzain (CR)) [M⁻¹ s⁻¹] | IC50 (cruzain (CR)) [µM] | IC50 (Cathepsin B (human); read-out: CBIC50micM; CB=CathepsinB; 25 °C, pH 6.5, 100 µM substrate) [µM] | IC50 (Cathepsin L (human); read-out: CL(IC50); CL=CathepsinL; 25 °C, pH 6.5, 6,25 µM substrate) [µM]
1 | CCOC(=O)/C=C/[C@@H](O)[C@H](CCc1ccccc1)NC(=O)[C@H](Cc1ccccc1)NC(=O)OCc1ccccc1 | 772 | 24 | 1127 | 13 | 557 M⁻¹ s⁻¹ | 3207 | 9.5 | – | – | – | –
2 | CCOC(=O)/C=C/[C@@H](O)[C@H](C)NC(=O)[C@H](Cc1ccccc1)NC(=O)OCc1ccccc1 | – | – | 828 | 14.3 | 2,735 M-1s-1 | 10951 | 45.1 | – | – | – | –
3 | O=C(O)/C=C/[C@@H](O)[C@H](CCc1ccccc1)NC(=O)[C@H](Cc1ccccc1)NC(=O)OCc1ccccc1 | – | – | 882 | 20 | 29 M⁻¹ s⁻¹ | – | – | – | – | – | –
4 | CCOC(=O)/C=C/[C@@H](O)[C@H](CCc1ccccc1)NC(=O)[C@H](Cc1ccccc1)NC(=O)N1CCOCC1 | 4190 | 1.13 | 1860 | 2.45 | – | 36735 | 1.13 | 3615 | 3.75 | – | –
5 | CCOC(=O)/C=C/C(=O)[C@H](CC(C)C)NC(=O)[C@H](Cc1ccccc1)NC(=O)OCc1ccccc1 | 138462 | – | 758621 | – | – | 1611111 | 0.0164 | 516667 | 0.0162 | 0.053 | 0.0096
